Test results: patent US11414442B2, “ARF6 inhibitors and related methods” (Navigen, Inc., priority 2017, dated 2022)
Several values for one entry are separate records, joined by “and”; a condition that tells them apart may be missing. Identical values can stand only once. Entries after “also recorded” stand apart in the source; their conditions may differ. Counter-ions that a name gives are not always drawn. Like-named read-outs stand apart in the source and are kept apart here. Where no end group is shown, it is not given here. The star is where a group is joined. Myristoyl = CCCCCCCCCCCCCC(=O)*

Experiments:
[1] = Solubility in water and PBS pH 7.4 (Tables 1 and 2); format: physicochemical
[2] = PK of NAV-A after IP dosing of NAV-B to mice; format: in vivo, mouse; details: six-hour period after IP NAV-B 43 mg/kg
Procedure: (§1) The PK profile of NAV-A was determined following intravenous (IV) and intraperitoneal (IP) administration of prodrug NAV-B to rats and mice, respectively. […] In this experiment, only the appearance and PK profile of NAV-A was followed, using an established LC/MS method. […] Of note was the very rapid appearance of NAV-A in plasma of the rats receiving NAV-B IV; the highest plasma concentration observed was at five minutes post-dose, the first time point measured. […] Near peak plasma levels of NAV-A were observed within 30 minutes.

ARF6 [3] = target: T1, ARF6 (Homo sapiens, UniProt P62330); assay: ARF6 inhibition, biochemical fluorometric nucleotide exchange assay
T1 sequence (P62330 whole entry, species assumed): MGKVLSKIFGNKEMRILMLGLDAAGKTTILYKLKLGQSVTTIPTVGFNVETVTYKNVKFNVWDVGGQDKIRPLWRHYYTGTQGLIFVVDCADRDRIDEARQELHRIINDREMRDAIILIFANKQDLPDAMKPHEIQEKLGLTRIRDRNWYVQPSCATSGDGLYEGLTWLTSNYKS
Description: These ARF6 inhibitors were discovered using a high-throughput biochemical, fluorometric nucleotide exchange assay to screen 100,000 compounds from a commercially available compound library. Medicinal chemistry optimization efforts have also been conducted. In some embodiments, the clinical potential of the discovered small molecule ARF6 inhibitors can be limited by poor solubility. Accordingly, the synthesis and development of water soluble prodrugs of ARF6 inhibitors can be advantageous. […]

[4] = tested on: Acinetobacter baumannii (AB) HUMC1; format: in vivo, mouse
Procedure: Briefly, CD-1 male mice were made neutropenic with 200 mg/kg cyclophosphamide and 250 mg/kg cortisone acetate (in 0.05% Tween 80) on Days −2 and +3. On Day 0, neutropenic mice were infected with Acinetobacter baumannii (AB) HUMC1 (virulent strain; see Luo G, et al. J Antimicrob Chemother. 2012; 67:1439-45 and Luo G, et al. PloS one. 2012; 7:e29446) via inhalation. Treatment with “NAV-” compound was initiated at three hours post infection.
Mice can be made neutropenic by injecting them with cyclophosphamide (200 mg/kg IP) and cortisone acetate (250 mg/kg, subcutaneously) on day −2 and +3 relative to infection. To induce AB pneumonia, neutropenic mice can be infected by aerosolizing AB into an inhalational chamber for one hour through a nebulizer as previously described (see Luo G, et al. J Antimicrob Chemother. 2012; 67:1439-45). Dosing and frequency of treatment can be dictated by the PK and ALI studies conducted in Example 6. Placebo mice can receive vehicle. […] Treatment can begin three hours after infection and continue through Day +7, and survival of mice (the primary endpoint) can be followed for 28 days post-infection. Each group may comprise 10 mice and each experiment may be repeated once (for a total of 20 mice per treatment group) to detect a three-day difference in survival by the Log Rank test (α=0.05).

[5] = tested on: LPS-induced acute lung injury (ALI); assay: Mouse model of LPS-induced ALI, BALF cell count and BALF protein; format: in vivo; details: for percent reduction in LPS-induced increase in BALF cell count / percent reduction in LPS-induced increase in BALF protein: mean ± SEM
Procedure: LPS was instilled into the trachea of anesthetized mice. […] The efficacy endpoints were total cell counts and total protein in BALF. All studies were conducted using vehicle negative controls and dexamethasone (5 mg/kg IP at T=0 and 6) as a positive control. Data were analyzed by 1-way ANOVA followed by Tukey's multiple comparison test (GRAPHPAD PRISM® software, version 6.05). […] Reductions in BALF total protein were also observed. […]

[6] = PK of NAV-A after IV dosing of NAV-B to rats; format: in vivo, rat
Procedure: as §1

alkaline phosphatase = assay: Alkaline phosphatase substrate; format: in vitro ADME; details: metabolized to active metabolite NAV-AAC′
Stability in solution = format: physicochemical; details: room temperature, protected from light
[7] = tested on: multidrug-resistant Pseudomonas aeruginosa (PA); assay: Multidrug-resistant Pseudomonas aeruginosa mouse model of pneumonia; format: in vivo; details: NAV-AAR′ 38 and 64 mg/kg subcutaneous once daily for 6 days
Procedure: NAV-AAR′ is also active in a multidrug-resistant Pseudomonas aeruginosa (PA) mouse model of pneumonia. […] NAV-AAR′ was administered by subcutaneous injection once daily for 6 days. The antibiotic meropenem was ineffective against MDR PA in this model.

[8] = Solubility of ARF6 prodrugs in various vehicles (Table 4); format: physicochemical
Plasmodium berghei ANKA = assay: Mouse model of cerebral malaria; details: NAV-B 42.75 mg/kg IP daily for 11 days from day 3; 14 days post-infection; dihydrochloride
Description: Mice were infected with Plasmodium berghei ANKA on day 0. Treatment was initiated on day 3. […] Surviving mice were sacrificed on day 14.

[9] = tested on: LPS-induced endotoxic shock; details: LPS 25 mg/kg IP, peptide IV; cited from earlier work
ARF6 [10] = target: T1, ARF6; details: HMVEC-D cells; cited from earlier work
vascular leak = details: in vivo; cited from earlier work
VE-cadherin = details: cited from earlier work
[11] = Table 1, water, read-out: Solubility Water
[12] = aqueous buffer, Table 1, PBS pH 7.4, read-out: Solubility PBS pH 7.4
[13] = NAV-AAR′ 38 mg/kg or 64 mg/kg intravenous

In the case of `O=c1cc(-c2ccc([N+](=O)[O-])cc2O)n2nc(Cc3ccccc3)c(-c3ccc(Cl)cc3)c2[nH]1` [NAV-A, 2-Benzyl-3-(4-chlorophenyl)-7-(2-hydroxy-4-nitro-phenyl)-4H-pyrazolo[1,5-a]pyrimidin-5-one], the solubility [1, 11] is reported as 35 µM, the solubility [1, 12] is reported as 8 µM and the “plasma levels of NAV-A” value [2] is reported as “high and sustained plasma levels”. For the same molecule, the IC50 (ARF6 [3]; Table 1, read-out: ARF6 IC50) was 2700 nM, the “appearance and weight gain of treated mice” value ([4]; NAV-A 30 mg/kg IP once daily) was “appeared healthy with normal weight gain” and the survival ([4]; NAV-A 30 mg/kg IP once daily for seven days, from 3 h post infection, DMA/PEG300 vehicle) was 50%. For the same molecule, the “percent reduction in LPS-induced increase in BALF cell count” value ([5]; 30 mg/kg IP, T = 0) was 57 ± 9%, the “percent reduction in LPS-induced increase in BALF protein” value ([5]; 30 mg/kg IP, T = 0) was 36 ± 13% and the “percent reduction in LPS-induced increase in BALF cell count” value ([5]; 30 mg/kg IP, T = 3) was 55 ± 3%. For the same molecule, the “percent reduction in LPS-induced increase in BALF protein” value ([5]; 30 mg/kg IP, T = 3) was 23 ± 12%, the “percent reduction in LPS-induced increase in BALF cell count” value ([5]; 60 mg/kg IP, T = 0) was 95 ± 4% and the “percent reduction in LPS-induced increase in BALF protein” value ([5]; 60 mg/kg IP, T = 0) was 46 ± 24%. The “percent reduction in LPS-induced increase in BALF cell count” value ([5]; 60 mg/kg IP, T = 3) was 91 ± 1%, the “percent reduction in LPS-induced increase in BALF protein” value ([5]; 60 mg/kg IP, T = 3) was 55 ± 6% and the “BALF total protein” value ([5]; NAV-A IP) was “Reductions”. For the same molecule, the “total number of cells in BALF” value ([5]; NAV-A IP 60 mg/kg (T=0), 30 mg/kg (T=3), 60 mg/kg (T=3)) was “significant decreases”, the “time of highest plasma concentration observed” value ([6]; NAV-A after IV NAV-B, rats, first time point measured) was “five” and the “exposure of NAV-A” value ([6]; after administration of NAV-B) was “excellent exposure”.

For `Cc1ccc(-c2c[nH]c3c(-c4ccc(Cl)cc4)c(Cc4ccccc4)nn3c2=O)c(OP(=O)([O-])[O-])c1.[Na+].[Na+]` [NAV-AAR′], the solubility ([1]; Table 2, water, read-out: Solubility Water) was greater than 50 mg/mL, the “substrate for alkaline phosphatase” value (alkaline phosphatase) was “substrate for alkaline phosphatase” and the IC50 (ARF6 [3]; Table 2, read-out: ARF6 IC50) was 1000 to 2000 nM. For the same molecule, the IC50 (ARF6 [3]; approximately, read-out: ARF6 IC50) was 1000 to 2000 nM, the solubility (Aqueous solubility) was no more than 50 mg/mL and the stable in solution (Stability in solution) was “up to 4 months”. The “survival in MDR PA pneumonia” value [7] was “improve survival; also recorded: increase in survival”, the “number of total (nucleated) cells in BALF” value [5, 13] was “significant reductions; also recorded: decrease” and the “protein concentration in BALF” value [5, 13] was “significant reductions; also recorded: decrease”.

`NCCCC[C@H](N)C(=O)Oc1cc([N+](=O)[O-])ccc1-c1cc(=O)[nH]c2c(-c3ccc(Cl)cc3)c(Cc3ccccc3)nn12` [NAV-B, [2-[2-benzyl-3-(4-chlorophenyl)-5-oxo-4H-pyrazolo[1,5-a]pyrimidin-7-yl]-5-nitro-phenyl] (2S)-2,6-diaminohexanoate dihydrochloride] gave a solubility [1, 11] of 425 µM, a solubility [1, 12] of 1.7 µM and an IC50 (ARF6 [3]; Table 1, read-out: ARF6 IC50) of 2600 nM. It also gave an IC50 (ARF6 [3]; Table 4, read-out: ARF6 inhibition IC50) of 2600 nM, a solubility (Aqueous solubility; acidic aqueous media, aqueous buffer) greater than 50 mg/mL and a solubility ([8]; 20 mM Na citrate buffer, pH 3.1, aqueous buffer, kinetic from dmso stock, diluted from 10 mM solution in DMSO, read-out: Solubility (μM) 20 mM Na Citrate, pH 3.1) of 280 µM. For the same molecule, the solubility ([8]; 0.1% Tween 80 in D5W, aqueous with cosolvent or surfactant or cyclodextrin, kinetic from dmso stock, diluted from 10 mM solution in DMSO, read-out: Solubility (μM) 0.1% Tween 80 in D5W) was 42 µM, the solubility ([8]; DPBS, pH 7.4, aqueous buffer, kinetic from dmso stock, diluted from 10 mM solution in DMSO, read-out: Solubility (μM) DPBS, pH 7.4) was 1 µM and the solubility ([8]; saline or isotonic, thermodynamic from solid, D5W, prepared from powder, read-out: Solubility (μM) D5W Prepared from powder) was 14000 µM. The solubility ([8]; water, kinetic from dmso stock, diluted from 10 mM solution in DMSO, read-out: Solubility (μM) H2O) was 400 µM, the “survival of malaria-infected mice” value (Plasmodium berghei ANKA) was “reduced mortality; also recorded: significant improvement in survival” and the survival ([4]; NAV-B 42.75 mg/kg IP once daily for 7 days (equivalent to NAV-A 30 mg/kg), normal saline vehicle) was 90%. For the same molecule, the “concentration of cells in BALF” value ([5]; NAV-B 42.75 mg/kg IP) was “significant effect”, the “concentration of protein in BALF” value ([5]; NAV-B 42.75 mg/kg IP) was “significant effect” and the “reduction in LPS-induced BALF cell count” value ([5]; NAV-B 42.75 mg/kg IP at T=0 (equivalent to 30 mg/kg NAV-A), FIG. 10A marks a and b, dihydrochloride) was 62% and 100%. The “reduction in BALF cell count” value ([5]; NAV-B 43 mg/kg IP at T=0) was 70%.

In the case of “MyrARF6 2-13: myristoylated peptide composed of amino acids 2-13 of ARF6, understood to inhibit ARF nucleotide exchange (Myristoyl-GKVLSKIFGNKE; UniProt P62330 2-13, looked up, fragment)”, the survival during endotoxemia [9] is given as “enhanced survival”, the ARF6 activation (ARF6 [10]) is given as “reduced ARF6 activation” and the “leak of Evans blue dye from the blood into lungs and kidneys” value (vascular leak) is given as “prevented the leak”. The “VE-cadherin at cell junctions” value (VE-cadherin) was “increased VE-cadherin at cell junctions”.
